The numbers were not newly measured in PMC7365549 (ACS Omega, 2020), which cites them from elsewhere.

Structures are written as SMILES.

Series [1] has as its target 5-HT3. As to conditions: read-out: Ki, binding to 5-HT3 receptor.
The target of series [2] is T1, human serotonin receptor 5-HT3 (Homo sapiens, UniProt P46098).
T1 sequence (P46098 24-478): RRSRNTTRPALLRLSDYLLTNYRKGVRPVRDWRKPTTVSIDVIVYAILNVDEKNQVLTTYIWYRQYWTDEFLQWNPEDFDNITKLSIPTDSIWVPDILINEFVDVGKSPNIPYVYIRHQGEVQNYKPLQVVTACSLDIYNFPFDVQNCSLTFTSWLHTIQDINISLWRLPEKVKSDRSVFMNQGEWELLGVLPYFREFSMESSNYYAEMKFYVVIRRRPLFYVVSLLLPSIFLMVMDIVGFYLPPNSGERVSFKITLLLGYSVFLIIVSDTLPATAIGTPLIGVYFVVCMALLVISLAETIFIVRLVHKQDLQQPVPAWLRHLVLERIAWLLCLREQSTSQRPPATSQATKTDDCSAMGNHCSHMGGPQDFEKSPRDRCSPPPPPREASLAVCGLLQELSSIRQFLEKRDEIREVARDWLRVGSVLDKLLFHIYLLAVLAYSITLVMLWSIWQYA
To be noted: read-out: Inhibition Constants (Ki) 5-HT3; comparison values.

Series [3] addresses T2, human serotonin receptor 5-HT1A (Homo sapiens, UniProt P08908).
T2 sequence (P08908 1-422): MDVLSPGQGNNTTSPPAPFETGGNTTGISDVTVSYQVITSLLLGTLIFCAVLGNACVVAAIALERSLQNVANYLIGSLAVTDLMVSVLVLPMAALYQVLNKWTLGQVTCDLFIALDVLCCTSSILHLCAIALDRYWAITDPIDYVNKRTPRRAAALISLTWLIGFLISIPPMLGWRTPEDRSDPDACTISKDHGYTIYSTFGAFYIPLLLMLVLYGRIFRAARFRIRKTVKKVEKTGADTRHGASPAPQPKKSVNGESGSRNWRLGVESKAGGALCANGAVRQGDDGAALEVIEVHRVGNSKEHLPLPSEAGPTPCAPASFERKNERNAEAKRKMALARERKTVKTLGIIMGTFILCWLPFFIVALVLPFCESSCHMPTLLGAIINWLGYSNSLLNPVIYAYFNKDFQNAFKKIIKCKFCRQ
As to conditions: read-out: Inhibition Constants (Ki) 5-HT1A; comparison values.

In series [4] the target is human serotonin receptor 5-HT2A (Homo sapiens, UniProt P28223). As to conditions: read-out: Inhibition Constants (Ki) 5-HT2A; comparison values.
Chain of human serotonin receptor 5-HT2A (P28223 whole entry): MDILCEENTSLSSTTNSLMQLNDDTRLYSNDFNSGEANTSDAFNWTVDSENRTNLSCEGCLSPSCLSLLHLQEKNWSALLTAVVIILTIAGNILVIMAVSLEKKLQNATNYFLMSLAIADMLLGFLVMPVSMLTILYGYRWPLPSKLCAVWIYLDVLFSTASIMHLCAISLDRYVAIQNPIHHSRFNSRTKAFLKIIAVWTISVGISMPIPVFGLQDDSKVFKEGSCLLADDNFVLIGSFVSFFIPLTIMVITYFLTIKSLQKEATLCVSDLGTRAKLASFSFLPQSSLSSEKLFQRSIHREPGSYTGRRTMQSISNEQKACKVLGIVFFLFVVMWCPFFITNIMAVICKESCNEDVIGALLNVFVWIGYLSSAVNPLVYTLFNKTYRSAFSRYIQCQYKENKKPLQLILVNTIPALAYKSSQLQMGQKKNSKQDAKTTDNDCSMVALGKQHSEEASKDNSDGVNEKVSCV

For the compound `C[N+](C)(C)CCc1c[nH]c2ccc([O-])cc12` [Bufotenidine, bufotenidine], in series [1], the Ki was 0.017 µM. With `CN(C)CCc1c[nH]c2cccc(O)c12` [psilocin], the inhibition constant (Ki) in series [2] was more than 10 µM. As for `CN(C)CCc1c[nH]c2cccc(OP(=O)(O)O)c12` [psilocybin], the Ki in series [3], in series [4] and in series [2] was more than 10 µM in each case.
